According to patent publication US12201610B2, “Compositions comprising aticaprant” (Janssen Pharmaceuticals, Inc., priority 2022, dated 2025):

Experiments:
subjects with MDD [1] = experiment: SATE score (Example 6); type: in vivo, human; details: Treatment Week 6, aticaprant 10 mg
Description: SATE is a one to three questionnaire administered when the subject is unable to complete other evaluations, i.e., away from the clinical setting such as at home. SATE is useful to evaluate improvement or deterioration of depressive symptoms of the subjects over a short period of time. […] See, Table 6.
iv. To investigate the effect of aticaprant on symptoms of depression using the Clinical Global Impression-Severity (CGI-S), the patient reported Symptoms of Major Depressive Disorder Scale (SMDDS) and the self-assessment of treatment experience (SATE).
• (i) Depression: Montgomery-Åsberg Depression Rating Scale (MADRS), Clinical Global Impression-Severity (CGI-S), Symptoms of Major Depressive Disorder Scale (SMDDS), and Self-assessment of treatment experience (SATE) • (ii) Anhedonia: Snaith-Hamilton Pleasure Scale (SHAPS) • (iii) Anxiety: Structured Interview Guide for the Hamilton Anxiety scale (SIGH-A) and HAM-A6 • (iv) Effects on Cognition: The Cognitive and Physical Functioning Questionnaire (CPFQ) • (v) Safety assessments

subjects with MDD [2] = experiment: MADRS total score, adjunctive aticaprant vs placebo in MDD (Example 6)
[3] = eITT Analysis Set, High anhedonia, Treatment Week 1
[4] = eITT Analysis Set, High anhedonia, Treatment Week 3
[5] = eITT Analysis Set, High anhedonia, Treatment Week 4
[6] = eITT Analysis Set, High anhedonia, Treatment Week 5
[7] = eITT Analysis Set, High anhedonia, Treatment Week 6
[8] = eITT Analysis Set, Low anhedonia, Treatment Week 1
[9] = eITT Analysis Set, Low anhedonia, Treatment Week 3
[10] = eITT Analysis Set, Low anhedonia, Treatment Week 4
[11] = eITT Analysis Set, Low anhedonia, Treatment Week 5
[12] = eITT Analysis Set, Low anhedonia, Treatment Week 6
[13] = eITT, Treatment Week 1, 10 mg adjunctive to SSRI/SNRI
[14] = eITT, Treatment Week 3, 10 mg adjunctive to SSRI/SNRI
[15] = eITT, Treatment Week 4, 10 mg adjunctive to SSRI/SNRI
[16] = eITT, Treatment Week 5, 10 mg adjunctive to SSRI/SNRI

Cc1cc(C)cc(C2CCCN2Cc2ccc(Oc3ccc(C(N)=O)cc3F)cc2)c1 (centres unmarked) [aticaprant, 3-fluoro-4-4-2-(3,5-dimethylphenyl)pyrrolidin-1-yl-methylphenoxybenzamide]
SATE: Depression Worsened (Much worse) (subjects with MDD [1]; n = 0): 0 subjects
SATE: Depression Worsened (Slightly worse) (subjects with MDD [1]; n = 0): 0 subjects
SATE: Depression Worsened (Very much worse) (subjects with MDD [1]; n = 0): 0 subjects
SATE: Depression Much improved (subjects with MDD [1]; n = 21): 6 subjects
SATE: Depression Slightly improved (subjects with MDD [1]; n = 21): 15 subjects
SATE: Depression Very Much Improved (subjects with MDD [1]; n = 21): 0 subjects
SATE: Overall Depression (Got worse) (subjects with MDD [1]; n = 30): 0 subjects
SATE: Overall Depression (Improved) (subjects with MDD [1]; n = 30): 21 subjects
SATE: Overall Depression (Not changed) (subjects with MDD [1]; n = 30): 9 subjects
Change from Treatment Baseline in MADRS Total Score, Least Squares Mean (Standard Error) (subjects with MDD [2]; Treatment Week 6, both responders and non-responders during placebo lead-in, 10 mg): −9.6 ± 0.79 score on a scale
MADRS Total Score Least Squares Mean Difference, point estimate (subjects with MDD [2]; Treatment Week 6, both responders and non-responders during placebo lead-in, 10 mg vs placebo): −3.1 score on a scale
MADRS Total Score Effect size (subjects with MDD [2]; [3]): −0.39
MADRS Total Score Mean Change from Baseline (SD) (subjects with MDD [2]; [3]): −4.6 (5.25)
MADRS Total Score Mean Change to Placebo (SD pooled) (subjects with MDD [2]; [3]): −1.8 (4.69)
MADRS Total Score Effect size (subjects with MDD [2]; [4]): −0.46
MADRS Total Score Mean Change from Baseline (SD) (subjects with MDD [2]; [4]): −6.7 (6.83)
MADRS Total Score Mean Change to Placebo (SD pooled) (subjects with MDD [2]; [4]): −3.0 (6.59)
MADRS Total Score Effect size (subjects with MDD [2]; [5]): −0.30
MADRS Total Score Mean Change from Baseline (SD) (subjects with MDD [2]; [5]): −8.5 (7.26)
MADRS Total Score Mean Change to Placebo (SD pooled) (subjects with MDD [2]; [5]): −2.2 (7.30)
MADRS Total Score Effect size (subjects with MDD [2]; [6]): −0.33
MADRS Total Score Mean Change from Baseline (SD) (subjects with MDD [2]; [6]): −9.7 (8.18)
MADRS Total Score Mean Change to Placebo (SD pooled) (subjects with MDD [2]; [6]): −2.6 (7.93)
MADRS Total Score Effect size (subjects with MDD [2]; [7]): −0.38
MADRS Total Score Mean Change from Baseline (SD) (subjects with MDD [2]; [7]): −11.5 (8.95)
MADRS Total Score Mean Change to Placebo (SD pooled) (subjects with MDD [2]; [7]): −3.4 (8.98)
MADRS Total Score Effect size (subjects with MDD [2]; [8]): −0.12
MADRS Total Score Mean Change from Baseline (SD) (subjects with MDD [2]; [8]): −2.3 (5.03)
MADRS Total Score Mean Change to Placebo (SD pooled) (subjects with MDD [2]; [8]): −0.5 (4.30)
MADRS Total Score Effect size (subjects with MDD [2]; [9]): −0.01
MADRS Total Score Mean Change from Baseline (SD) (subjects with MDD [2]; [9]): −4.9 (5.99)
MADRS Total Score Mean Change to Placebo (SD pooled) (subjects with MDD [2]; [9]): −0.1 (5.85)
MADRS Total Score Effect size (subjects with MDD [2]; [10]): 0.01
MADRS Total Score Mean Change from Baseline (SD) (subjects with MDD [2]; [10]): −6.4 (7.40)
MADRS Total Score Mean Change to Placebo (SD pooled) (subjects with MDD [2]; [10]): 0.0 (6.80)
MADRS Total Score Effect size (subjects with MDD [2]; [11]): 0.05
MADRS Total Score Mean Change from Baseline (SD) (subjects with MDD [2]; [11]): −7.2 (6.46)
MADRS Total Score Mean Change to Placebo (SD pooled) (subjects with MDD [2]; [11]): 0.3 (6.65)
MADRS Total Score Effect size (subjects with MDD [2]; [12]): −0.11
MADRS Total Score Mean Change from Baseline (SD) (subjects with MDD [2]; [12]): −9.2 (8.01)
MADRS Total Score Mean Change to Placebo (SD pooled) (subjects with MDD [2]; [12]): −0.9 (8.13)
MADRS Total Score Change from Baseline LSMean (SE), MMRM (subjects with MDD [2]; [13]): −3.2
MADRS Total Score LSMean Difference (SE) Treatment - Placebo, MMRM (subjects with MDD [2]; [13]): −1.2 (1.24)
MADRS Total Score Mean (SD) (subjects with MDD [2]; [13]): 25.4
MADRS Total Score Mean Change from Baseline (SD) (subjects with MDD [2]; [13]): −3.3
MADRS Total Score Mean Change to Placebo (SD pooled) (subjects with MDD [2]; [13]): −1.1 (4.52)
MADRS Total Score Mean Change from Baseline (SD) (subjects with MDD [2]; eITT, Treatment Week 1, 10 mg adjunctive to SSRI/SNRI, listed as Aticaprant): −3.3 (5.21)
MADRS Total Score Effect size (subjects with MDD [2]; eITT, Treatment Week 1, vs placebo, negative favors aticaprant): −0.24
MADRS Total Score Change from Baseline LSMean (SE), MMRM (subjects with MDD [2]; [14]): −5.6
MADRS Total Score LSMean Difference (SE) Treatment - Placebo, MMRM (subjects with MDD [2]; [14]): −1.5 (1.25)
MADRS Total Score Mean (SD) (subjects with MDD [2]; [14]): 23.1
MADRS Total Score Mean Change from Baseline (SD) (subjects with MDD [2]; [14]): −5.7
MADRS Total Score Mean Change to Placebo (SD pooled) (subjects with MDD [2]; [14]): −1.4 (6.18)
MADRS Total Score Mean Change from Baseline (SD) (subjects with MDD [2]; eITT, Treatment Week 3, 10 mg adjunctive to SSRI/SNRI, listed as Aticaprant): −5.7 (6.38)
MADRS Total Score Effect size (subjects with MDD [2]; eITT, Treatment Week 3, vs placebo, negative favors aticaprant): −0.22
MADRS Total Score Change from Baseline LSMean (SE), MMRM (subjects with MDD [2]; [15]): −7.3
MADRS Total Score LSMean Difference (SE) Treatment - Placebo, MMRM (subjects with MDD [2]; [15]): −1.1 (1.25)
MADRS Total Score Mean (SD) (subjects with MDD [2]; [15]): 21.5
MADRS Total Score Mean Change from Baseline (SD) (subjects with MDD [2]; [15]): −7.3
MADRS Total Score Mean Change to Placebo (SD pooled) (subjects with MDD [2]; [15]): −0.9 (7.00)
MADRS Total Score Mean Change from Baseline (SD) (subjects with MDD [2]; eITT, Treatment Week 4, 10 mg adjunctive to SSRI/SNRI, listed as Aticaprant): −7.3 (7.35)
MADRS Total Score Effect size (subjects with MDD [2]; eITT, Treatment Week 4, vs placebo, negative favors aticaprant): −0.14
MADRS Total Score Change from Baseline LSMean (SE), MMRM (subjects with MDD [2]; [16]): −8.7
MADRS Total Score LSMean Difference (SE) Treatment - Placebo, MMRM (subjects with MDD [2]; [16]): −1.5 (1.25)
MADRS Total Score Mean (SD) (subjects with MDD [2]; [16]): 20.5
MADRS Total Score Mean Change from Baseline (SD) (subjects with MDD [2]; [16]): −8.4
MADRS Total Score Mean Change to Placebo (SD pooled) (subjects with MDD [2]; [16]): −1.1 (7.25)
MADRS Total Score Mean Change from Baseline (SD) (subjects with MDD [2]; eITT, Treatment Week 5, 10 mg adjunctive to SSRI/SNRI, listed as Aticaprant): −8.4 (7.36)
MADRS Total Score Effect size (subjects with MDD [2]; eITT, Treatment Week 5, vs placebo, negative favors aticaprant): −0.14
percentage of subjects with MADRS remission (MADRS total score ≤10) (subjects with MDD [2]; eITT, Treatment Week 6): 16.9%
percentage of subjects with ≥30% improvement in MADRS total score (subjects with MDD [2]; eITT, Treatment Week 6): 57.6%
